Columns and labels:
[1] = test system: human tumor-infiltrating lymphocytes (TIL); assay: Ex vivo expansion of TIL from human tumor fragments (pre-REP); assay type: cell-based; details: for Expansion of TIL, total cell number relative to IL-2 alone: day 17
Description: Samples of human ovarian and colon tumors were obtained from the Cooperative Human Tissue Network (CHTN, c/o Vanderbilt University Medical Center, Nashville, TN). Solid tumor specimens were carefully dissected free of surrounding fatty and necrotic areas. The tumors were sliced into 8 mm^3 (2×2×2 mm^3) fragments under sterile conditions using a scalpel and a scalpel holder.
The plates were placed in a humidified 37° C. incubator with 5% CO2. Half of the medium was replaced every two days after culture initiation. […] Subsequently, half the media was replaced thrice weekly, cultures were split to maintain a cell density of 1×10^6 cells/mL. […] Mitochondrial markers including, Mitotracker, Mitoprobe, and 2-NBDG may also be used to assess differentiation and/or activation of cells.

[2] = test system: human T cells from peripheral blood mononuclear cells; assay: Flow cytometry immunophenotyping of T cells expanded from donor PBMC; assay type: cell-based; details: for CD4 TCM, percentage of total cell number / CD4 TEM, percentage of total cell number / CD4 TSCM, percentage of total cell number / CD8 TCM, percentage of total cell number / CD8 TEM, percentage of total cell number / CD8 TSCM, percentage of total cell number: donor PBMC, day 11
From the text: At day eleven, cells were pooled and counted, and immunophenotyped at day 11 by flow cytometry by measuring expression of lineage (CD4, CD8) and differentiation (including CD45RA, CD45RO, CD95, CCR7, CD62L, TCF1, PD-1, TIM3, LAG3) markers.
T lymphocytes were defined based on lineage and differentiation marker expression according to the developmental model (Restifo, Blood, 124:476-477, 2014), as shown in Table 4.

OT-1 cells = assay: FACS of transferred OT-1 cells in blood and tumor of E.G7-OVA mice; assay type: in vivo, mouse
Description: Dead cells were removed (Miltenyi Biotec Cat #130-090-101) prior to transfer in vivo to monitor their trafficking and function in an EG.7 lymphoma model, which expresses the OVA antigen. Approximately five million cells per mouse were transferred to mice having an average tumor burden of about 70 mm^3. Following in vivo transfer of the OT-1 cells, antitumor response was monitored over time and the quality and quantity of immune response were assessed at various time points.
The expanded OT-1 cells were characterized by FACS analysis and transferred into E.G7-OVA mice, which bear ovalbumin (OVA) expressing tumors. Following in vivo transfer of expanded OT-1 cells, antitumor response was monitored over time and the quality and quantity of immune response was assessed at various time points. Analysis included FACS analysis on blood, tumor, and spleen samples. Analysis also included re-stimulation of splenocytes with OVA Class I peptide to evaluate the multifunctionality of the antigen-specific effector T cells.
On Day 0, E.G7-OVA cells were implanted into each mouse. On Day 5, approximately 5×10^6 in vitro expanded OT-1 cells were injected into the tail of each mouse. On Day 9, blood was analyzed by FACS. On Day 14, blood, tumor and spleen samples were analyzed by FACS. On Day 27, blood was analyzed by FACS. Tumor volume was measured approximately every five days through about 50 days post implant.
OT-1 cells were expanded according to the previous examples and administered to E.G7-OVA mice, which bear ovalbumin (OVA) expressing tumors. The cells were evaluated for their in vivo properties.
Expanded OT-1 cells were assessed in blood 4 days and 22 days after transfer.
Expanded OT-1 cells were assessed in tumors 4 days after transfer.

## C[C@@H]1CN(Cc2cc3c(c(C(F)(F)F)c2)CN(c2cccc(C4(Cc5nncn5C)COC4)c2)C3=O)CCC1(F)F [compound 103]
[1]; Cbl inhibitor in the absence of IL-2
  Expansion of TIL: considerable expansion of TIL
[1]; TIL1 (ovary), 0.1 μM Cbl-i
  Expansion of TIL, total cell number relative to IL-2 alone: 90%
[1]; TIL1 (ovary), 1.0 μM Cbl-i
  Expansion of TIL, total cell number relative to IL-2 alone: 75%
[1]; TIL1 (ovary), 10 μM Cbl-i
  Expansion of TIL, total cell number relative to IL-2 alone: 60%
[1]; TIL1 (ovary), IL-2 + 0.1 μM Cbl-i
  Expansion of TIL, total cell number relative to IL-2 alone: 300%
[1]; TIL1 (ovary), IL-2 + 1.0 μM Cbl-i
  Expansion of TIL, total cell number relative to IL-2 alone: 450%
[1]; TIL1 (ovary), IL-2 + 10 μM Cbl-i
  Expansion of TIL, total cell number relative to IL-2 alone: 450%
[1]; TIL2 (ovary), 0.1 μM Cbl-i
  Expansion of TIL, total cell number relative to IL-2 alone: 30%
[1]; TIL2 (ovary), 1.0 μM Cbl-i
  Expansion of TIL, total cell number relative to IL-2 alone: 26%
[1]; TIL2 (ovary), 10 μM Cbl-i
  Expansion of TIL, total cell number relative to IL-2 alone: 22%
[1]; TIL2 (ovary), IL-2 + 0.1 μM Cbl-i
  Expansion of TIL, total cell number relative to IL-2 alone: 49%
[1]; TIL2 (ovary), IL-2 + 1.0 μM Cbl-i
  Expansion of TIL, total cell number relative to IL-2 alone: 86%
[1]; TIL2 (ovary), IL-2 + 10 μM Cbl-i
  Expansion of TIL, total cell number relative to IL-2 alone: 49%
[1]; TIL3 (ovary), 0.1 μM Cbl-i
  Expansion of TIL, total cell number relative to IL-2 alone: 30%
[1]; TIL3 (ovary), 1.0 μM Cbl-i
  Expansion of TIL, total cell number relative to IL-2 alone: 43%
[1]; TIL3 (ovary), 10 μM Cbl-i
  Expansion of TIL, total cell number relative to IL-2 alone: 16%
[1]; TIL3 (ovary), IL-2 + 0.1 μM Cbl-i
  Expansion of TIL, total cell number relative to IL-2 alone: 103%
[1]; TIL3 (ovary), IL-2 + 1.0 μM Cbl-i
  Expansion of TIL, total cell number relative to IL-2 alone: 114%
[1]; TIL3 (ovary), IL-2 + 10 μM Cbl-i
  Expansion of TIL, total cell number relative to IL-2 alone: 110%
[1]; TIL4 (colon), 0.1 μM Cbl-i
  Expansion of TIL, total cell number relative to IL-2 alone: 45%
[1]; TIL4 (colon), 1.0 μM Cbl-i
  Expansion of TIL, total cell number relative to IL-2 alone: 58%
[1]; TIL4 (colon), 10 μM Cbl-i
  Expansion of TIL, total cell number relative to IL-2 alone: 54%
[1]; TIL4 (colon), IL-2 + 0.1 μM Cbl-i
  Expansion of TIL, total cell number relative to IL-2 alone: 113%
[1]; TIL4 (colon), IL-2 + 1.0 μM Cbl-i
  Expansion of TIL, total cell number relative to IL-2 alone: 197%
[1]; TIL4 (colon), IL-2 + 10 μM Cbl-i
  Expansion of TIL, total cell number relative to IL-2 alone: 170%
[1]; TIL5 (ovary), 0.1 μM Cbl-i
  Expansion of TIL, total cell number relative to IL-2 alone: 50%
[1]; TIL5 (ovary), 1.0 μM Cbl-i
  Expansion of TIL, total cell number relative to IL-2 alone: 70%
[1]; TIL5 (ovary), 10 μM Cbl-i
  Expansion of TIL, total cell number relative to IL-2 alone: 90%
[1]; TIL5 (ovary), IL-2 + 0.1 μM Cbl-i
  Expansion of TIL, total cell number relative to IL-2 alone: 20%
[1]; TIL5 (ovary), IL-2 + 1.0 μM Cbl-i
  Expansion of TIL, total cell number relative to IL-2 alone: 10%
[1]; TIL5 (ovary), IL-2 + 10 μM Cbl-i
  Expansion of TIL, total cell number relative to IL-2 alone: 20%
[1]; TIL6 (ovary), 0.1 μM Cbl-i
  Expansion of TIL, total cell number relative to IL-2 alone: 93%
[1]; TIL6 (ovary), 1.0 μM Cbl-i
  Expansion of TIL, total cell number relative to IL-2 alone: 87%
[1]; TIL6 (ovary), 10 μM Cbl-i
  Expansion of TIL, total cell number relative to IL-2 alone: 80%
[1]; TIL6 (ovary), IL-2 + 0.1 μM Cbl-i
  Expansion of TIL, total cell number relative to IL-2 alone: 280%
[1]; TIL6 (ovary), IL-2 + 1.0 μM Cbl-i
  Expansion of TIL, total cell number relative to IL-2 alone: 260%
[1]; TIL6 (ovary), IL-2 + 10 μM Cbl-i
  Expansion of TIL, total cell number relative to IL-2 alone: 240%
[1]; both IL-2 and Cbl inhibitor, TIL1 and TIL4
  Production of TIL vs IL-2 or Cbl inhibitor alone: substantially more TIL
[2]; 1 μM Cbl inhibitor alone
  Percentage of CD8+ cells vs IL-2 alone: higher percentages of CD8+ cells
[2]; IL-2 in combination with 0.1 or 0.5 μM of Cbl inhibitor
  Percentage of CD8+ cells in culture: highest percentage of CD8+ cells
[2]; 0.1 μM Cbl-i
  CD4 TCM, percentage of total cell number: 53.1%
  CD4 TEM, percentage of total cell number: 23.9%
  CD4 TSCM, percentage of total cell number: 12%
  CD8 TCM, percentage of total cell number: 50.7%
  CD8 TEM, percentage of total cell number: 14.2%
  CD8 TSCM, percentage of total cell number: 17.1%
[2]; 1.0 μM Cbl-i
  CD4 TCM, percentage of total cell number: 55.3%
  CD4 TEM, percentage of total cell number: 19.3%
  CD4 TSCM, percentage of total cell number: 7.27%
  CD8 TCM, percentage of total cell number: 61.1%
  CD8 TEM, percentage of total cell number: 12.9%
  CD8 TSCM, percentage of total cell number: 7.29%
[2]; 10 μM Cbl-i
  CD4 TCM, percentage of total cell number: 47.3%
  CD4 TEM, percentage of total cell number: 23.3%
  CD4 TSCM, percentage of total cell number: 1.37%
  CD8 TCM, percentage of total cell number: 34.2%
  CD8 TEM, percentage of total cell number: 9.23%
  CD8 TSCM, percentage of total cell number: 10.8%
[2]; IL-2 + 0.1 μM Cbl-i
  CD4 TCM, percentage of total cell number: 13.9%
  CD4 TEM, percentage of total cell number: 29.7%
  CD4 TSCM, percentage of total cell number: 8.53%
  CD8 TCM, percentage of total cell number: 47.8%
  CD8 TEM, percentage of total cell number: 18.3%
  CD8 TSCM, percentage of total cell number: 4.2%
[2]; IL-2 + 1.0 μM Cbl-i
  CD4 TCM, percentage of total cell number: 16.8%
  CD4 TEM, percentage of total cell number: 28.4%
  CD4 TSCM, percentage of total cell number: 1.98%
  CD8 TCM, percentage of total cell number: 37.8%
  CD8 TEM, percentage of total cell number: 41.4%
  CD8 TSCM, percentage of total cell number: 0.23%
[2]; IL-2 + 10 μM Cbl-i
  CD4 TCM, percentage of total cell number: 24.3%
  CD4 TEM, percentage of total cell number: 25.8%
  CD4 TSCM, percentage of total cell number: 2.69%
  CD8 TCM, percentage of total cell number: 49%
  CD8 TEM, percentage of total cell number: 10.6%
  CD8 TSCM, percentage of total cell number: 9.36%
[2]; donor PBMCs, FIGS. 2A and 2B
  Selective expansion of CD8+ T lymphocytes: selectively expand CD8+ T lymphocytes
OT-1 cells; Cbl inhibitor expanded, 4 and 22 days after transfer
  Frequency in total CD45+ cells and persistence in blood vs IL-2 alone or anti-CD3 alone: higher frequency in total CD45+ cells and persisted longer
OT-1 cells; Cbl inhibitor expanded, 4 days after transfer
  Tumor infiltration (frequency in total CD45+ cells in tumor) vs IL-2 alone or anti-CD3 alone: increased ability to infiltrate the tumor
OT-1 cells; OT-1 cells expanded with Cbl inhibitor
  OT-1 cells expressing stem markers TCF1+, PD-1+, TIM-3−: greater percentage of cells that expressed stem markers
OT-1 cells; expanded with Cbl inhibitor and IL-2, 4 and 22 days after transfer
  Frequency in total CD45+ cells and persistence in blood: even higher frequency in total CD45+ cells and higher persistence
OT-1 cells; expanded with Cbl inhibitor and IL-2, 4 days after transfer
  Tumor infiltration (frequency in total CD45+ cells in tumor): highest frequency in total CD45+ cells
OT-1 cells; expanded with Cbl inhibitor or Cbl inhibitor plus IL-2
  Expression of exhaustion markers PD1, TIM3, LAG3 in tumor vs IL-2 alone: lower level of expression of exhaustion markers

From patent US12121540B2, “CBL inhibitors and compositions for use in adoptive cell therapy” (Nurix Therapeutics, Inc., priority 2019, dated 2024)
